Source: ChEMBL document CHEMBL5230155, “Recent contributions of quinolines to antimalarial and anticancer drug discovery research” (Eur J Med Chem, 2021)
pIC50, pKd: −log10 of the molar value. In brackets after ≈: the same amount, converted by molar mass.

Tests used:
[1] = biological target: Lysine-specific demethylase 6B (Homo sapiens) (UniProt O15054); test: Inhibition of JMJD3 (unknown origin) at 25 uM relative to control
Plasmodium falciparum [2] = test: Antimalarial activity against CQ-resistant Plasmodium falciparum W2; format: functional, organism-based
HepG2 = test: Cytotoxicity against human HepG2 cells; format: functional, cell-based; conditions: Homo sapiens, HepG2
Plasmodium falciparum [3] = test: microbe, parasite or virus in culture
Description: Antimalarial activity against Plasmodium falciparum

[4] = Binding affinity to human nRNP
Plasmodium falciparum [5] = test: Antimalarial activity against CQ-sensitive Plasmodium falciparum 3D7; format: functional, organism-based
Plasmodium falciparum [6] = test: Antimalarial activity against CQ-resistant Plasmodium falciparum K1; format: functional, organism-based
Plasmodium falciparum [7] = test: Antimalarial activity against CQ-sensitive Plasmodium falciparum D6; format: functional, organism-based
PC-3 = test: Antiproliferative activity against human PC-3 cells; format: functional, cell-based
[8] = biological target: Cathepsin B (Homo sapiens) (UniProt P07858); test: Inhibition of human cathepsin B exopeptidase activity at 50 uM relative to control
HCT-116 = test: Cytotoxicity against human HCT-116 cells; format: functional, cell-based
Plasmodium falciparum [9] = test: microbe, parasite or virus in culture; conditions: NF54
Description: Antimalarial activity against CQ-sensitive Plasmodium falciparum NF54

MCF7 = test: Antiproliferative activity against human MCF7 cells; format: functional, cell-based; conditions: Homo sapiens, MCF7
[10] = biological target: Hepatocyte growth factor receptor (Homo sapiens, UniProt P08581); test: Inhibition of c-Met (unknown origin)
Hepatocyte growth factor receptor, sequence (P08581 whole entry): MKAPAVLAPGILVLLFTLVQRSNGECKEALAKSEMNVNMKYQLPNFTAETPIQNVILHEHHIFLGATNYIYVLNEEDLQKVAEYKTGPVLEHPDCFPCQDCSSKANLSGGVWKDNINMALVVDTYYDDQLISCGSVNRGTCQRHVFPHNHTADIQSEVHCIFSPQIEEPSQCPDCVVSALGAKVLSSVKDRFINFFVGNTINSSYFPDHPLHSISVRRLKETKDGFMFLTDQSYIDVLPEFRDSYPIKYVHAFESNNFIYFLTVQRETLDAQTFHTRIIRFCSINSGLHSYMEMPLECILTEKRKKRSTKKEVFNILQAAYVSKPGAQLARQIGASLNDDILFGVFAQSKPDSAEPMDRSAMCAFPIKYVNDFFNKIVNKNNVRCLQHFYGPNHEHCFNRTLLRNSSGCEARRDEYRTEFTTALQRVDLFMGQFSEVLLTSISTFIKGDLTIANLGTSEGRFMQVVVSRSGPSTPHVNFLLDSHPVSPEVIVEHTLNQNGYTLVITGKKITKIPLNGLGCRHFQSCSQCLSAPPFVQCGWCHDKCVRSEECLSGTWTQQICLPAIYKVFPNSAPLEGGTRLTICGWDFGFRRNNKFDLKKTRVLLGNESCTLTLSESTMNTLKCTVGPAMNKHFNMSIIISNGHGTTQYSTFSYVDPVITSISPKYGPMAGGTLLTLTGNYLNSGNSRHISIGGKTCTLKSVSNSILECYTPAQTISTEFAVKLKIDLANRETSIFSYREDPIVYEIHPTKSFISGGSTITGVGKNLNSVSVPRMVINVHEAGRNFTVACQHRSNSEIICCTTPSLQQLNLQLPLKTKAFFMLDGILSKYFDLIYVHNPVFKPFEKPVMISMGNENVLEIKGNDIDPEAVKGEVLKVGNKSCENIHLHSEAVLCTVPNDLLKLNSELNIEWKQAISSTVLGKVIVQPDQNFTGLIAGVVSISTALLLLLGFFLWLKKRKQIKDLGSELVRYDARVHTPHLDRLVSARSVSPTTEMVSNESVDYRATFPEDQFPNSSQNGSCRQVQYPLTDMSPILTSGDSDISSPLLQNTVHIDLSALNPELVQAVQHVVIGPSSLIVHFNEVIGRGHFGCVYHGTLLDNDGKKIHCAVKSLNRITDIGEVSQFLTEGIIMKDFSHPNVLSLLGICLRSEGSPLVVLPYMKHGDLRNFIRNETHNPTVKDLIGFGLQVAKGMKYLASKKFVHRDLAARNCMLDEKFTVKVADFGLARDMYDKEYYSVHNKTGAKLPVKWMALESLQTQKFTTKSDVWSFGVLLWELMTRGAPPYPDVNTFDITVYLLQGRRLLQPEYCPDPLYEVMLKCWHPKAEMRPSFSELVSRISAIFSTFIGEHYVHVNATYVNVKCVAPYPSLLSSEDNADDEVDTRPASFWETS

Lysine-specific demethylase 6B (Homo sapiens), sequence (O15054 whole entry): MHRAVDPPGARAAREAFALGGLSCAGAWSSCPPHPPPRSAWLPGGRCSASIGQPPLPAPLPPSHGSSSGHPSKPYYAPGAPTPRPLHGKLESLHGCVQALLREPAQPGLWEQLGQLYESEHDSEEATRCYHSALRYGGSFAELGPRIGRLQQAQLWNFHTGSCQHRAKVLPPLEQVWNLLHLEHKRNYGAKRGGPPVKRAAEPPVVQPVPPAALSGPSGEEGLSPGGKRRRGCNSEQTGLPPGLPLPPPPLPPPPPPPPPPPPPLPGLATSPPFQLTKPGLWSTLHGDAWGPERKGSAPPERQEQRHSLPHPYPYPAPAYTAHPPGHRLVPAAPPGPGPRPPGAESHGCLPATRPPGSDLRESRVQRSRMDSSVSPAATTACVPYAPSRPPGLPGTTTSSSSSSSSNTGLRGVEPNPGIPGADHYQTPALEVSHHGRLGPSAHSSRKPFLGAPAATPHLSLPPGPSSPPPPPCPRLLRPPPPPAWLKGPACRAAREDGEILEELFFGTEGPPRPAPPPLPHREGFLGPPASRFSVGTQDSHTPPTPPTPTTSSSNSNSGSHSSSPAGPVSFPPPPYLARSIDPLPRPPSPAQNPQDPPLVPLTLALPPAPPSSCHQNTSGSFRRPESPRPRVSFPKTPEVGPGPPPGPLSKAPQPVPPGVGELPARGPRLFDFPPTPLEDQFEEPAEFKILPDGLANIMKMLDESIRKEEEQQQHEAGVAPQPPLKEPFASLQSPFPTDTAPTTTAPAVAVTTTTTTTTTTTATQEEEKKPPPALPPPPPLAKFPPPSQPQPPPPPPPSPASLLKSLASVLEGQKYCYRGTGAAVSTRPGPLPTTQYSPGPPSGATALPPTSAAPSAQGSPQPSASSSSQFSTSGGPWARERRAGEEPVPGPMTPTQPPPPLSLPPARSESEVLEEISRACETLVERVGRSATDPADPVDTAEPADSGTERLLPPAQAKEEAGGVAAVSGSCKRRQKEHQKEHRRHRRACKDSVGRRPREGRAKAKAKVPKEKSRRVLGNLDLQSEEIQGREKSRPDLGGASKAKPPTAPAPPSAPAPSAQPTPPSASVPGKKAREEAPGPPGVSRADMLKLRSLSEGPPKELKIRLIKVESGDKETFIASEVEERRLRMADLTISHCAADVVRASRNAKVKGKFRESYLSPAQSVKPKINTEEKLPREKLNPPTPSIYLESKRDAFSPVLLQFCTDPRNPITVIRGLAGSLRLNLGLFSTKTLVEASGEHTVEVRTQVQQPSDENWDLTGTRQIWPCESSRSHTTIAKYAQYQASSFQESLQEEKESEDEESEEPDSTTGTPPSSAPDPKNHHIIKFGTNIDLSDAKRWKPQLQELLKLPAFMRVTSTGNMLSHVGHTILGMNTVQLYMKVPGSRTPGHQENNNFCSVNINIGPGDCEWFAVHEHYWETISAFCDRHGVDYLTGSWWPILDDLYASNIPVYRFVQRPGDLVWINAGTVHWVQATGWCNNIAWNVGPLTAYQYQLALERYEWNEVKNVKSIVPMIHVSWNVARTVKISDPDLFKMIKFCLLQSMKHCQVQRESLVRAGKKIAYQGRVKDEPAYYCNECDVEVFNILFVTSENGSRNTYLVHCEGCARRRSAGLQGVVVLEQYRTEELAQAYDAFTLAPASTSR

Structure (SMILES): O=C(O)c1ccc(-c2cnc3c(C(=O)O)ccc(C(=O)O)c3c2)s1
- inhibition [1]: 0%

Structure (SMILES): O=C1c2cccc(N3CCOCC3)c2C(=O)N1CCCCCCNc1ccnc2cc(Cl)ccc12
- pIC50 (Plasmodium falciparum [2]): 8.22

Structure (SMILES): O=C(N/N=C/c1cc(O)ccc1O)c1ccc(Nc2ccnc3ccccc23)cc1
- pIC50 (HepG2): 4.56

Structure (SMILES): CC(C)NC(=S)NNC(=O)c1cc(-c2ccccc2Cl)nc2ccccc12
- IC50 (Plasmodium falciparum [3]): < 0.3 µg/mL

Structure (SMILES): O=C(/C=C/c1cc(N2CCOCC2)c2ccccc2n1)c1ccc(O)cc1
- pKd [4]: 5.34

Structure (SMILES): CC(C)c1ccc(-c2cncn2CCNc2ccnc3cc(Cl)ccc23)cc1
- pIC50 (Plasmodium falciparum [5]): 7.10
- pIC50 (Plasmodium falciparum [6]): 6.54

Structure (SMILES): Cc1c(Cl)ccc2cc(/C=C/C(=O)c3ccc(Br)s3)c(Cl)nc12
- pIC50 (Plasmodium falciparum [2]): > 7.30
- pIC50 (Plasmodium falciparum [7]): > 7.30

Structure (SMILES): O=C1c2ccc(N3CCN(CCO)CC3)cc2C(=O)N1CCCCNc1ccnc2cc(Cl)ccc12
- pIC50 (Plasmodium falciparum [2]): 8.22

Structure (SMILES): O=C1c2ccc(N3CCN(CCO)CC3)cc2C(=O)N1CCCNc1ccnc2cc(Cl)ccc12
- pIC50 (Plasmodium falciparum [2]): 8.22

Structure (SMILES): CC(O)(CS(=O)(=O)c1ccc(F)cc1)C(=O)Nc1ccc(C#N)c(C(F)(F)F)c1 (stereo not drawn) [BICALUTAMIDE]
- pIC50 (PC-3): 5.89

Structure (SMILES): CCCCNC(=O)c1cc([N+](=O)[O-])c2cccnc2c1O
- inhibition [8]: 19.4%

Structure (SMILES): O=C(NNC(=S)Nc1ccc([N+](=O)[O-])cc1)c1cc(-c2ccc(F)cc2F)nc2ccc(F)cc12
- IC50 (Plasmodium falciparum [3]): 0.1 µg/mL (≈ 0.201 µM)

Structure (SMILES): CN(C)C/C=C/C(=O)Nc1cc2c(Nc3ccc(F)c(Cl)c3)ncnc2cc1O[C@H]1CCOC1 [AFATINIB]
- IC50 (HCT-116): 5.3 µg/mL (≈ 10.9 µM)
- IC50 (HepG2): 5.3 µg/mL

Structure (SMILES): O=C(/C=C/c1cc(N2CCOCC2)c2cc([N+](=O)[O-])ccc2n1)c1ccc(O)cc1
- pKd [4]: 5.34

Structure (SMILES): CN(C)CCNCc1ccc(-c2cc(-c3ccc(CNCCN(C)C)cc3)c3ccccc3n2)cc1
- pIC50 (Plasmodium falciparum [2]): 6.47
- pIC50 (Plasmodium falciparum [5]): 7.49
- pIC50 (HepG2): 5.51

Structure (SMILES): C=C[C@@H]1CN2CC[C@@H]1C[C@@H]2[C@@H](O)c1ccnc2ccc(OC)cc12
- pIC50 (Plasmodium falciparum [9]): 6.91

Structure (SMILES): O=C(NCc1ccccc1)c1cc([N+](=O)[O-])c2cccnc2c1O
- inhibition [8]: 19.4%

Structure (SMILES): CN(C)c1ccc(/C=C/c2cc(C(=O)O)c3cc(Br)ccc3n2)cc1
- IC50 (HCT-116): 7.7 µg/mL (≈ 19.4 µM)
- IC50 (HepG2): 7.7 µg/mL

Structure (SMILES): COc1ccc(C2CN3CCC2CC3[C@H](O)c2ccnc3ccc(OC)cc23)cc1 (mixture of isomers)
- pIC50 (Plasmodium falciparum [9]): 8.30

Structure (SMILES): COc1cc(-c2cnc3c(C(=O)O)ccc(C(=O)O)c3c2)c(OC)nn1
- inhibition [1]: 0%

Structure (SMILES): CN(C)c1ccc(/C=C/c2cc(-c3nnc(N)s3)c3cc(Br)ccc3n2)cc1
- IC50 (HCT-116): 7.7 µg/mL (≈ 17 µM)
- IC50 (HepG2): 7.7 µg/mL

Structure (SMILES): Clc1ccc2c(NCCn3cncc3C3CCCC3)ccnc2c1
- pIC50 (Plasmodium falciparum [5]): 7.10
- pIC50 (Plasmodium falciparum [6]): 6.54

Structure (SMILES): C=C[C@H]1CN2CC[C@H]1C[C@H]2[C@H](O)c1ccnc2ccc(OC)cc12 [QUININE]
- IC50 (Plasmodium falciparum [3]): 0.26 µg/mL (≈ 0.801 µM)
- pIC50 (Plasmodium falciparum [9]): 7.66

Structure (SMILES): Cc1ccc(S(=O)(=O)Oc2ccc(Cl)c3cccnc23)cc1
- pIC50 (MCF7): 5.86

Structure (SMILES): Cc1cc(C)c(S(=O)(=O)Oc2ccc(Cl)c3cccnc23)c(C)c1
- pIC50 (MCF7): 5.86

Structure (SMILES): COc1cc2nccc(Oc3ccc(NC(=O)C4(C(=O)Nc5ccc(F)cc5)CC4)cc3)c2cc1O
- pIC50 [10]: 7.72

Structure (SMILES): CC(C)(C)c1cncn1CCNc1ccnc2cc(Cl)ccc12
- pIC50 (Plasmodium falciparum [5]): 7.10
- pIC50 (Plasmodium falciparum [6]): 6.54

Structure (SMILES): Cc1c(Cl)ccc2cc(/C=C/C(=O)c3ccccc3Br)c(Cl)nc12
- pIC50 (Plasmodium falciparum [2]): > 7.30
- pIC50 (Plasmodium falciparum [7]): > 7.30

Structure (SMILES): COc1ccc2nccc([C@@H](O)C3CC4CCN3CC4c3ccc(C(F)(F)F)cc3)c2c1 (mixture of isomers)
- pIC50 (Plasmodium falciparum [9]): 8.30

Structure (SMILES): C#Cc1ccc(-c2cn(CCNc3ccnc4cc(Cl)ccc34)nn2)c(F)c1
- pIC50 (Plasmodium falciparum [9]): 6.85
- pIC50 (Plasmodium falciparum [6]): 6.80

Structure (SMILES): Cn1cc(-c2ccc3nnc(C(F)(F)c4ccc5ncccc5c4)n3n2)cn1 [JNJ-38877605]
- pIC50 [10]: 8.77

Structure (SMILES): CCN(CC)c1ccc2c(c1)C(=O)N(CCC(=O)NCCNc1ccnc3cc(Cl)ccc13)C2=O
- pIC50 (Plasmodium falciparum [2]): 7.01

Structure (SMILES): Cc1ccc2nc(-c3cn(-c4ccc(Cl)cc4)nc3-c3ccccc3)cc(C(=O)NCCCN(C)C)c2c1
- IC50 (Plasmodium falciparum [3]): 0.0879 µg/mL (≈ 0.168 µM)

Structure (SMILES): COc1ccc(F)cc1-c1cnc2c(C(=O)O)ccc(C(=O)O)c2c1
- inhibition [1]: 0%

Structure (SMILES): Cc1ccc(NC(=S)NNC(=O)c2c(C)nc3ccccc3c2C)cc1
- IC50 (Plasmodium falciparum [3]): 0.02 µg/mL (≈ 0.0549 µM)

Structure (SMILES): CCCCCCCOc1c(OC)cc(NC(C)CCCN)c2nc(C(C)(C)C)ccc12 (stereo not drawn)
- IC50 (Plasmodium falciparum [2]): 0.022 µg/mL
- IC50 (Plasmodium falciparum [7]): 0.02 µg/mL

Structure (SMILES): Cc1ccc2nc(/C=C/c3ccc(N(C)C)cc3)cc(C(=O)O)c2c1
- IC50 (HCT-116): 7.7 µg/mL (≈ 23.2 µM)
- IC50 (HepG2): 7.7 µg/mL

Structure (SMILES): O=C(NNC(=S)Nc1c(F)cccc1F)c1cc(-c2ccccc2Br)nc2c(Cl)cc(C(F)(F)F)cc12
- IC50 (Plasmodium falciparum [3]): 0.1 µg/mL (≈ 0.162 µM)

Structure (SMILES): O=C(NC1CCCCC1)c1cc([N+](=O)[O-])c2cccnc2c1O
- inhibition [8]: 19.4%

Structure (SMILES): COc1ccccc1NC(=S)NNC(=O)c1cc(-c2ccccc2Cl)nc2ccccc12
- IC50 (Plasmodium falciparum [3]): < 0.3 µg/mL

Structure (SMILES): Cc1nc2ccccc2c(C)c1C(=O)NNC(=S)Nc1ccccc1
- IC50 (Plasmodium falciparum [3]): 0.02 µg/mL (≈ 0.0571 µM)

Structure (SMILES): O=C(NCc1ccc(F)cc1)c1cc([N+](=O)[O-])c2cccnc2c1O
- inhibition [8]: 19.4%

Structure (SMILES): COc1ccc(C(=O)/C=C/c2cc(N3CCOCC3)c3cc(OC)ccc3n2)cc1
- pKd [4]: 5.34

Structure (SMILES): OCc1cc(-c2cn(-c3ccc(Cl)cc3Cl)nc2-c2ccccc2)nc2ccccc12
- IC50 (Plasmodium falciparum [3]): 0.036 µg/mL (≈ 0.0807 µM)
